Experimental data as given in PubChem BioAssay AID248 (DTP/NCI, 2004).
Values joined by “and” are separate entries in the source; they are usually repeats but may differ in a detail not shown here. Equal entries are not always repeated. Inconclusive results and toxic doses are left out. Rule as the data show it: active = T/C of 150% or more; inactive = T/C below 125%.

Tested on: L1210 leukemia ip in BDF1 mice, survival T/C
Test: NCI In Vivo Anticancer Drug Screen. Data for tumor model L1210 Leukemia (intraperitoneal) in B6D2F1 (BDF1) mice
Conditions: endpoint: mean survival time, vehicle: carboxymethylcellulose (CMC), higher = longer survival
Method in brief: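 In this screen, tumor-bearing mice given compound are compared to those given vehicle, and their survival values are reported as a treated-to-control quotient.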

Measured: T/C

NC(N)=N/N=C(/CC(=O)c1ccccc1)c1ccccc1
inactive: dose: 15.0 mg/kg/injection, schedule: Q01DX Z (ip) 103 % of control | dose: 30.0 mg/kg/injection, schedule: Q01DX Z (ip) 107 % of control | dose: 30.0 mg/kg/injection, schedule: Q01DX Z (oral) 98 % of control | dose: 60.0 mg/kg/injection, schedule: Q01DX Z (ip) 101 % of control | dose: 60.0 mg/kg/injection, schedule: Q01DX Z (oral) 96 % of control | dose: 120.0 mg/kg/injection, schedule: Q01DX Z (oral) 98 % of control | dose: 240.0 mg/kg/injection, schedule: Q01DX Z (oral) 93 % of control and 100 % of control | dose: 480.0 mg/kg/injection, schedule: Q01DX Z (oral) 100 % of control
